The values that follow are results of earlier work, collected in US20240050950A1, “GRADIENT-BASED MICROFLUIDIC CIRCUIT, DEVICE, AND METHOD FOR PERFORMING AN ASSAY” (priority 2020, published 2024).

Where a name gives a salt, the structure may show the parent alone. Numbered stars: 1 amine (or outer) side, 2 acyl side, 3 side chain; on linkers, the order of the positions; unused ones are H or OH. Bridge positions count the residues as written; N and C are the ends. Square brackets hold non-standard residues; d marks the D form. Peptide text beside a SMILES is read from it. X1 = CC(C)CCCCCCCCC[C@H](CC(=O)[*:1])O[*:2]

For the first series the following is noted: Table 1, antimicrobial agents/drugs; cited from earlier work.
In the case of `CCCc1cc(C(N)=S)ccn1` [Prothionamide], the Molar volume is 158.5 ± 3.0 cm^3.

For the molecule `NC(=O)c1cnccn1` [Pyrazinecarboxamide], the Molar volume is given as 87.7 ± 7.0 cm^3. Turning to `COc1ccc2nc3cc(Cl)ccc3c(Nc3cc(CN4CCCC4)c(O)c(CN4CCCC4)c3)c2n1` [Pyronaridine], the Molar volume is reported as 381.8 ± 3.0 cm^3. For `O=[N+]([O-])c1c(Cl)cccc1-c1c[nH]cc1Cl` [Pyrrolnitrin], the Molar volume is 168.7 ± 3.0 cm^3.

Consider `C[C@@H]1C[C@H]2O[C@@H]2/C=C\C=C\C(=O)Cc2c(Cl)c(O)cc(O)c2C(=O)O1` [Radicicol], for which the Molar volume is reported as 267.3 ± 3.0 cm^3. As to `NC(=O)c1ncn([C@@H]2O[C@H](CO)[C@@H](O)[C@H]2O)n1` [Ribavirin], the Molar volume is 117.0 ± 7.0 cm^3. Turning to `NC[C@H]1O[C@H](O[C@H]2[C@H](O[C@@H]3O[C@H](CO)[C@@H](O)[C@H]3O)[C@@H](O)[C@H](N)C[C@@H]2N)[C@H](N)[C@@H](O)[C@@H]1O` [Ribostamycin], the Molar volume is recorded as 283.6 ± 5.0 cm^3.

Take `CO[C@H]1/C=C/O[C@@]2(C)Oc3c(C)c(O)c4c(c3C2=O)C2=NC3(CCN(CC(C)C)CC3)NC2=C(NC(=O)/C(C)=C\C=C\[C@H](C)[C@H](O)[C@@H](C)[C@@H](O)[C@@H](C)[C@H](OC(C)=O)[C@@H]1C)C4=O` [Rifabutin]: the Molar volume is given as 632.4 ± 7.0 cm^3. As for `CO[C@H]1/C=C/O[C@@]2(C)Oc3c(C)c(O)c4c(O)c(c(/C=N/N5CCN(C6CCCC6)CC5)c(O)c4c3C2=O)NC(=O)/C(C)=C\C=C\[C@H](C)[C@H](O)[C@@H](C)[C@@H](O)[C@@H](C)[C@H](OC(C)=O)[C@@H]1C` [Rifapentine (DL 473), Rifapentine], the Molar volume is given as 648.0 ± 7.0 cm^3. Take `CC[C@H]1OC(=O)[C@H](C)[C@@H](O[C@H]2C[C@@](C)(OC)[C@@H](O)[C@H](C)O2)[C@H](C)[C@@H](O[C@@H]2O[C@H](C)C[C@H](N(C)C)[C@H]2O)[C@](C)(O)C[C@@H](C)/C(=N\OCOCCOC)[C@H](C)[C@@H](O)[C@]1(C)O` [Roxithromycin]: the Molar volume is recorded as 666.3 ± 7.0 cm^3. For `CC[C@@H](C(=O)[C@@H](C)[C@@H](O)[C@H](C)[C@@H]1O[C@@H]([C@@H](CC)C(=O)O)CC[C@@H]1C)[C@H]1O[C@]2(C=C[C@@H](O)[C@]3(CC[C@@](C)([C@H]4CC[C@](O)(CC)[C@H](C)O4)O3)O2)[C@H](C)C[C@@H]1C` [Salinomycin], the Molar volume was 633.5 ± 5.0 cm^3.

Consider `C/C=C/C=C/C(=O)O` [Sorbic acid], for which the Molar volume is on record as 109.4 ± 3.0 cm^3. `CO[C@H]1[C@@H](O)[C@H](O)[C@H](OC[C@@]23C[C@@H]4[C@H](C)CC[C@H]4[C@@]4(C=O)CC2C=C(C(C)C)[C@@]34C(=O)O)O[C@@H]1C` [Sordarin]: the Molar volume is recorded as 381.1 ± 5.0 cm^3. For `C[C@@H]1CN(c2c(F)c(N)c3c(=O)c(C(=O)O)cn(C4CC4)c3c2F)C[C@H](C)N1` [Sparfloxacin], the Molar volume was 273.2 ± 3.0 cm^3. Turning to `CN[C@@H]1[C@H](O)[C@H](NC)[C@H]2O[C@@]3(O)C(=O)C[C@@H](C)O[C@H]3O[C@@H]2[C@H]1O` [Spectinomycin], the Molar volume was 231.6 ± 5.0 cm^3. For `N=C(N)NCCCC[C@H](O)CC(=O)NC(O)C(=O)NCCCCNCCCN` (some centres unmarked) [Spergualin], the Molar volume is 304.4 ± 7.0 cm^3. On to `CN[C@@H]1C[C@H]2O[C@@](C)([C@@H]1OC)n1c3ccccc3c3c4c(c5c6ccccc6n2c5c31)C(=O)NC4` [Staurosporine (Staurosporine), Staurosporine], for which the Molar volume is 298.7 ± 7.0 cm^3.

With `[H]/N=C(/N)N[C@H]1[C@H](O)[C@@H](O)[C@H](O[C@@H]2O[C@@H](C)[C@](O)(C=O)[C@H]2O[C@@H]2O[C@@H](CO)[C@H](O)[C@@H](O)[C@@H]2NC)[C@@H](N/C(N)=N\[H])[C@@H]1O` [Streptomycin], the Molar volume is on record as 293.4 ± 7.0 cm^3. With `COC1=C(N)C(=O)c2nc(-c3nc(C(=O)O)c(C)c(-c4ccc(OC)c(OC)c4O)c3N)ccc2C1=O` [Streptonigrin (Bruneomycin, Nigrin), Streptonigrin], the Molar volume is listed as 322.2 ± 5.0 cm^3. On to `CC1(C)S[C@@H]2[C@H](NC(=O)C(C(=O)O)c3ccccc3)C(=O)N2[C@H]1C(=O)O` (stereo partly drawn) [α-Carboxybenzylpenicillin], for which the Molar volume is reported as 246.1 ± 5.0 cm^3.

With Aculeacin A, the Molar volume is 754.1 ± 5.0 cm^3. Colistin: the Molar volume was 916.9 ± 5.0 cm^3.

Consider Ikarugamycin, for which the Molar volume is 390.4 ± 5.0 cm^3. On to Ivermectin Bla, for which the Molar volume is reported as 708.3 ± 5.0 cm^3. Regarding Kirromycin [Kirromycin (mocimycin)], the Molar volume is given as 622.6 ± 3.0 cm^3. With “Lactoferricin B (SITCVRRAFALECIRAIAEKKADAV; Lactoferricin-B; UniProt P24627 52-76, looked up, fragment) [Lactoferricin B (metallibure)]”, the Molar volume was 184.7 ± 3.0 cm^3. As for Lysobactin, the Molar volume is 895.9 ± 7.0 cm^3. Consider Magainin I, for which the Molar volume is 1900.4 ± 3.0 cm^3. As for “Mithramycin A [Mithramycin A (Plicamycin)]”, the Molar volume is recorded as 728.3 ± 5.0 cm^3.

Consider Neomycin, for which the Molar volume was 380.3 ± 5.0 cm^3. “Phleomycin [Phleomycin (UNII:BN3E7WJN9X)]”: the Molar volume was 724.4 ± 7.0 cm^3.

Staying with this series, now noted: Table 2, anticancer drugs; cited from earlier work.
Take `CNC(=O)c1cc(Oc2ccc(NC(=O)Nc3ccc(Cl)c(C(F)(F)F)c3)c(F)c2)ccn1` [Regorafenib]: the Molar volume is given as 323.6 ± 3.0 cm^3. As for `C[C@@H](OC[C@@]1(c2ccccc2)CC[C@]2(CCC(=O)N2)CN1)c1cc(C(F)(F)F)cc(C(F)(F)F)c1` [Rolapitant Hydrochloride], the Molar volume was 373.3 ± 5.0 cm^3.

For the molecule `N#CC[C@H](C1CCCC1)n1cc(-c2ncnc3[nH]ccc23)cn1` [Ruxolitinib phosphate], the Molar volume is recorded as 218.6 ± 7.0 cm^3. For the molecule `Nc1nc2nc[nH]c2c(=S)[nH]1` [Tabloid (Thioguanine), Thioguanine], the Molar volume is listed as 96.4 ± 3.0 cm^3. Regarding `CO[C@H]1C[C@@H]2CC[C@@H](C)[C@@](O)(O2)C(=O)C(=O)N2CCCC[C@H]2C(=O)O[C@H]([C@H](C)C[C@@H]2CC[C@@H](OC(=O)C(C)(CO)CO)[C@H](OC)C2)CC(=O)[C@H](C)/C=C(\C)[C@@H](O)[C@@H](OC)C(=O)[C@H](C)C[C@H](C)/C=C/C=C/C=C/1C` [Temsirolimus (Torisel), Temsirolimus], the Molar volume is listed as 853.1 ± 5.0 cm^3.

On to `O=C1CCC(N2C(=O)c3ccccc3C2=O)C(=O)N1` (centres unmarked) [Thalidomide], for which the Molar volume is 171.7 ± 3.0 cm^3. Take `COc1cc2c(cc1O)CCN[C@]21CS[C@@H]2c3c(OC(C)=O)c(C)c4c(c3[C@H](COC1=O)N1[C@@H]2[C@H]2c3c(cc(C)c(OC)c3O)C[C@@H]([C@@H]1O)N2C)OCO4` [Trabectedin (Yondelis), Trabectedin]: the Molar volume is recorded as 489.2 ± 5.0 cm^3. In the case of `CC(=O)OC[C@H]1O[C@@H](n2ccc(=O)[nH]c2=O)[C@H](OC(C)=O)[C@@H]1OC(C)=O` [Uridine Triacetate (Vistogard), Uridine Triacetate], the Molar volume is 257.5 ± 5.0 cm^3. In the case of `CCCCC(=O)OCC(=O)[C@]1(O)Cc2c(O)c3c(c(O)c2[C@@H](O[C@H]2C[C@H](NC(=O)C(F)(F)F)[C@H](O)[C@H](C)O2)C1)C(=O)c1c(OC)cccc1C3=O` [Valrubicin], the Molar volume is on record as 469.8 ± 5.0 cm^3.

For the molecule `CC[C@]1(O)C[C@@H]2CN(CCc3c([nH]c4ccccc34)[C@@](C(=O)OC)(c3cc4c(cc3OC)N(C)[C@H]3[C@@](O)(C(=O)OC)[C@H](OC(C)=O)[C@]5(CC)C=CCN6CC[C@]43[C@@H]65)C2)C1` [Vinblastine Sulfate], the Molar volume is on record as 590.0 ± 5.0 cm^3.

For the molecule `O=C(CCCCCCC(=O)Nc1ccccc1)NO` [Vorinostat (Zolinza), Vorinostat], the Molar volume is given as 224.9 ± 3.0 cm^3. On to `Cc1nccn1CC1CCc2c(c3ccccc3n2C)C1=O` (centres unmarked) [Zofran (Ondansetron Hydrochloride), Ondansetron Hydrochloride], for which the Molar volume is recorded as 230.1 ± 7.0 cm^3.

Turning to Alemtuzumab, the Molar volume is reported as 165.7 ± 7.0 cm^3. As for Epoetin Alfa, the Molar volume is on record as 665.6 ± 5.0 cm^3. Regarding “Gilteritinib Fumarate [Xospata (Gilteritinib Fumarate)]”, the Molar volume is 444.9 ± 3.0 cm^3.

The series is the same for the next values; noted with them: Table 3, antifungal drugs and other molecules; cited from earlier work.
On to `CC(C)CCCCCCCCC[C@@H]1CC(=O)N[C@@H](CCC(=O)O)C(=O)N[C@@H](CC(C)C)C(=O)N[C@H](CC(C)C)C(=O)N[C@@H](C(C)C)C(=O)N[C@@H](CC(=O)O)C(=O)N[C@H](CC(C)C)C(=O)N[C@@H](CC(C)C)C(=O)O1` [Surfactin] (EL[dL]VD[dL]L; linker N-C via X1), for which the Molar volume is on record as 998.6 ± 3.0 cm^3. `CN(C/C=C/C#CC(C)(C)C)Cc1cccc2ccccc12` [Terbinafine]: the Molar volume was 289.1 cm^3. With `CC(C)N1CCN(c2ccc(OCC3COC(Cn4cncn4)(c4ccc(Cl)cc4Cl)O3)cc2)CC1` (centres unmarked) [Terconazole], the Molar volume was 391.5 ± 7.0 cm^3. For `Cc1ccc(C(C)C)c(O)c1` [Thymol (5-Methyl-2-isopropylphenol), 5-Methyl-2-isopropylphenol], the Molar volume is 150.2 cm^3.

On to `Clc1ccc(C(Cn2ccnc2)OCc2ccsc2Cl)c(Cl)c1` (centres unmarked) [Tioconazole], for which the Molar volume is on record as 269.0 ± 7.0 cm^3. For the molecule `Cc1cccc(N(C)C(=S)Oc2ccc3ccccc3c2)c1` [Tolnaftate], the Molar volume is reported as 251.1 ± 3.0 cm^3. For the molecule `Nc1ncnc2c1ccn2[C@@H]1O[C@H](CO)[C@@H](O)[C@H]1O` [Tubercidin], the Molar volume is 139.5 ± 7.0 cm^3. In the case of Antimycin, the Molar volume is on record as 431.0 ± 5.0 cm^3. Take Bleomycin: the Molar volume is 887.0 ± 5.0 cm^3. Take Cinnamycin: the Molar volume is listed as 1281.0 ± 7.0 cm^3.

Turning to Fengycin [Fengycin (Plipastatin)], the Molar volume is 1105.9 ± 5.0 cm^3.

The series is the same for the next values; noted with them: fluorescent dyes; cited from earlier work.
As to `O=C(O)CN(CC(=O)O)Cc1cc2c(cc1O)Oc1cc(O)c(CN(CC(=O)O)CC(=O)O)cc1C21OC(=O)c2ccccc21` [calcein], the Molar volume is 356±5 cm^3/mole. Turning to `O=c1ccc2[n+]([O-])c3ccc(O)cc3oc-2c1` [resazurin], the Molar volume was 145±7 cm^3/mole.
